Consider 21 molecules from US20230117034A1, “PYRAZOLOTRIAZINES” (Bayer Aktiengesellschaft, priority 2019, published 2023).

Read-outs that look alike come from different tables or passages of the source. Bounds are passed on as bounds.

For one experiment, the target named is CDK12/CycK (Homo sapiens, UniProt Q9NYV4). The experiment can be described thus: CDK12/CycK high ATP kinase assay (TR-FRET, 2 mM ATP). The class given is biochemical. The settings on record: 2 mM ATP (high ATP); median; read-out: CDK12/CyclinK, 2 mM ATP (high ATP), IC50-[mol/l] (median). In a few lines:
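His-tagged human CDK12/CycK (~0.75 nM) pre-incubated 15 min with compound, then 60 min at 22 °C with 2 mM ATP and 1 µM biotinylated peptide (HEPES pH 7.5, 20 mM MgCl2). EDTA stop; phospho-Ser62 antibody/Eu anti-rabbit and streptavidin-XL665 TR-FRET, 665/620 nm ratio normalised to give IC50.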

The subject of experiment [1] is MDA-MB-231, human breast cancer cells. The experiment can be described thus: Proliferation assay MDA-MB-231 (crystal violet, 4 days). Type of experiment: cell-based. The settings on record: Homo sapiens, MDA-MB-231 cells, median, read-out: Prolif-MDA MB-231, IC50-[mol/l] (median). In a few lines: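 Following a 24 h attachment in 10% fetal calf serum medium, cells receive test substance over 0.01-10 µmol/L for 4 days. Dye retained by fixed cells is eluted and read at 595 nm; cell number change is referenced to day-0 and untreated wells.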

Experiment [2] concerns BRCA1 mRNA expression in MDA-MB-231 cells. The experiment in a line: qRT-PCR assay: BRCA1 mRNA expression in MDA-MB-231. Type of experiment: cell-based, human. The settings on record: Homo sapiens, median, read-out: RTqPCR-MDA-MB-231, IC50, BRCA1 (median). In a few lines: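 GAPDH-normalised RT-qPCR measures the transcript after 24 h continuous compound treatment of cells seeded at 200,000/well one day earlier.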
A general note: In qPCR the cycle at which signal appears reflects the starting amount.

Setting [3] is: MDA-MB-231, Inhibition of BRCA1 mRNA expression in MDA-MB-231 cells.

CDK12/CycK, sequence (Q9NYV4 with tags, fused parts or gaps): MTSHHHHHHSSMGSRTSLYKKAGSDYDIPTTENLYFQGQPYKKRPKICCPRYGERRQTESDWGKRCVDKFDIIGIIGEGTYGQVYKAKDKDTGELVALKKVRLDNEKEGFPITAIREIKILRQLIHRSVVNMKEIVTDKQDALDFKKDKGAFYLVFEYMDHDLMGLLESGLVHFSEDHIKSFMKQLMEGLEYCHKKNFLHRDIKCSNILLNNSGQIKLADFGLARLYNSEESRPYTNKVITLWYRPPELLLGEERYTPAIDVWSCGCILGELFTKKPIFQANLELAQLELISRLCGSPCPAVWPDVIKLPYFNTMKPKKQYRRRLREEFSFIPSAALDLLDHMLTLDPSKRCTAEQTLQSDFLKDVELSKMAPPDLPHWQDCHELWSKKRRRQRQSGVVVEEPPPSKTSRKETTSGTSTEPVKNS
CDK12/CycK, sequence (O75909 1-300 partner limits assumed): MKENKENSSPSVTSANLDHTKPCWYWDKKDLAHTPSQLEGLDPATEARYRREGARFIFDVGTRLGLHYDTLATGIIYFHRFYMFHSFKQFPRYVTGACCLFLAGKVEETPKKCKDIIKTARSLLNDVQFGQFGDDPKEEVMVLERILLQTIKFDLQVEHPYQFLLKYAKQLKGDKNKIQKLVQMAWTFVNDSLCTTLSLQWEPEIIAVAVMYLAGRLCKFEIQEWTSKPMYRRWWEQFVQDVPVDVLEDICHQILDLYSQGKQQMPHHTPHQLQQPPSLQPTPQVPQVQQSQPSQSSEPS

With `FC(F)(F)c1ccc2[nH]c(CNc3nc(N4CCOCC4)nc4c(C5CC5)cnn34)nc2c1` [Example 322, 8-cyclopropyl-2-(morpholin-4-yl)-N-{[5-(trifluoromethyl)-1H-benzimidazol-2-yl]methyl}pyrazolo[1,5-a][1,3,5]triazin-4-amine], the IC50 at CDK12/CycK amounted to 1.21 µM; in experiment [1] (MDA-MB-231, 96 h), 0.00885 µM; in experiment [2] (setting [3]), 0.00356 µM.
For `CN1CCN(c2nc(NCc3nc4cc(Cl)c(Cl)cc4[nH]3)n3ncc(Br)c3n2)CC1` [Example 330, 8-bromo-N-[(5,6-dichloro-1H-benzimidazol-2-yl)methyl]-2-(4-methylpiperazin-1-yl)pyrazolo[1,5-a][1,3,5]triazin-4-amine] the same measures were 4.63 µM, 0.00338 µM and 0.00568 µM.
In the case of `Fc1cc2nc(CNc3nc(N4C[C@H]5CC[C@@H](C4)N5)nc4c(C5CC5)cnn34)[nH]c2cc1Cl` [Example 328, N-[(6-chloro-5-fluoro-1H-benzimidazol-2-yl)methyl]-8-cyclopropyl-2-[(1R,5S)-3,8-diazabicyclo[3.2.1]octan-3-yl]pyrazolo[1,5-a][1,3,5]triazin-4-amine], the IC50 turned out to be 1.66 µM on CDK12/CycK; 0.00104 µM in experiment [1] (MDA-MB-231, 96 h); 0.00278 µM in experiment [2] (setting [3]).
On to `Clc1cc2nc(CNc3nc(N4CCOCC4)nc4c(Br)cnn34)[nH]c2cc1Cl` [Example 329, 8-bromo-N-[(5,6-dichloro-1H-benzimidazol-2-yl)methyl]-2-(morpholin-4-yl)pyrazolo[1,5-a][1,3,5]triazin-4-amine], for which the IC50 at CDK12/CycK was found to be 0.54 µM; in experiment [1] (MDA-MB-231, 96 h), 0.00766 µM; in experiment [2] (setting [3]), 0.00923 µM.
For `Brc1cnn2c(NCc3nc4ccccc4[nH]3)nc(N3CCN4CCC3CC4)nc12` [Example 349, N-[(1H-benzimidazol-2-yl)methyl]-8-bromo-2-(1,4-diazabicyclo[3.2.2]nonan-4-yl)pyrazolo[1,5-a][1,3,5]triazin-4-amine] the same measures were 8.67 µM, 0.0129 µM and 0.0156 µM.
The corresponding values for `CN1CCN(c2nc(NCc3nc4cc(F)c(Cl)cc4[nH]3)n3ncc(Br)c3n2)CC1` [Example 337, 8-bromo-N-[(6-chloro-5-fluoro-1H-benzimidazol-2-yl)methyl]-2-(4-methylpiperazin-1-yl)pyrazolo[1,5-a][1,3,5]triazin-4-amine] are 8.72 µM, 0.00245 µM and < 0.01 µM.
The corresponding values for `Fc1cccc2[nH]c(CNc3nc(N4CC5CCC(C4)N5)nc4c(Cl)cnn34)nc12` [Example 363, 8-chloro-2-(3,8-diazabicyclo[3.2.1]octan-3-yl)-N-[(4-fluoro-1H-benzimidazol-2-yl)methyl]pyrazolo[1,5-a][1,3,5]triazin-4-amine] are 3.31 µM, 0.0346 µM and 0.0225 µM.
For the molecule `CN(CC(C)(C)O)c1nc(NCc2nc3cc(F)c(F)cc3[nH]2)n2ncc(Br)c2n1` [Example 347], the IC50 was 2.18 µM on CDK12/CycK; 0.00435 µM in experiment [1] (MDA-MB-231, 96 h); 0.00204 µM in experiment [2] (setting [3]).
Regarding `Fc1cccc(-c2nnc(CNc3nc(N4CCOCC4)nc4c(C(F)(F)F)cnn34)[nH]2)c1` [Example 385, N-{[5-(3-fluorophenyl)-4H-1,2,4-triazol-3-yl]methyl}-2-(morpholin-4-yl)-8-(trifluoromethyl)pyrazolo[1,5-a][1,3,5]triazin-4-amine], the IC50 on CDK12/CycK was found to be 0.28 µM; in experiment [1] (MDA-MB-231, 96 h), 0.0438 µM; in experiment [2] (setting [3]) it was 0.0316 µM.
With `FC(F)(F)c1ccc2[nH]c(CNc3nc(N4CC5CCC(C4)N5)nc4c(Br)cnn34)nc2c1` [Example 354, 8-bromo-2-(3,8-diazabicyclo[3.2.1]octan-3-yl)-N-{[5-(trifluoromethyl)-1H-benzimidazol-2-yl]methyl}pyrazolo[1,5-a][1,3,5]triazin-4-amine], the IC50 at CDK12/CycK is 3.74 µM; in experiment [1] (MDA-MB-231, 96 h), 0.00305 µM; in experiment [2] (setting [3]), < 0.1 µM.
The corresponding values for `FC(F)(F)c1cnn2c(NCc3nc4cc(Cl)c(Cl)cc4[nH]3)nc(N3CCOCC3)nc12` [Example 332, N-[(5,6-dichloro-1H-benzimidazol-2-yl)methyl]-2-(morpholin-4-yl)-8-(trifluoromethyl)pyrazolo[1,5-a][1,3,5]triazin-4-amine] are 0.19 µM, 0.0118 µM and 0.00378 µM.
The corresponding values for `CN1CCN(c2nc(NCc3nc4cc(C(F)(F)F)ccc4[nH]3)n3ncc(Br)c3n2)CC1` [Example 344, 8-bromo-2-(4-methylpiperazin-1-yl)-N-{[5-(trifluoromethyl)-1H-benzimidazol-2-yl]methyl}pyrazolo[1,5-a][1,3,5]triazin-4-amine] are 8.37 µM, 0.00482 µM and 0.00234 µM.
The corresponding values for `CC(C)c1cnn2c(NCc3ncc(-c4ccccc4)[nH]3)nc(N3CCN(C)CC3)nc12` [Example 31, 2-(4-methylpiperazin-1-yl)-N-[(5-phenyl-1H-imidazol-2-yl)methyl]-8-(propan-2-yl)pyrazolo[1,5-a][1,3,5]triazin-4-amine] are 13.6 µM, 0.0498 µM and 0.015 µM.
Regarding `FC(F)(F)Oc1ccc2[nH]c(CNc3nc(N4C[C@H]5CC[C@@H](C4)N5)nc4c(Br)cnn34)nc2c1` [Example 382, 8-bromo-2-[(1R,5S)-3,8-diazabicyclo[3.2.1]octan-3-yl]-N-{[5-(trifluoromethoxy)-1H-benzimidazol-2-yl]methyl}pyrazolo[1,5-a][1,3,5]triazin-4-amine], the IC50 on CDK12/CycK came to 0.823 µM; in experiment [1] (MDA-MB-231, 96 h), 0.0293 µM; in experiment [2] (setting [3]), 0.0288 µM.
For `Cc1cc2nc(CNc3nc(N4CC5CCC(C4)N5)nc4c(C5CC5)cnn34)[nH]c2cc1C` [Example 326, 8-cyclopropyl-2-(3,8-diazabicyclo[3.2.1]octan-3-yl)-N-[(5,6-dimethyl-1H-benzimidazol-2-yl)methyl]pyrazolo[1,5-a][1,5]triazin-4-amine], the IC50 at CDK12/CycK was determined as 0.942 µM; in experiment [1] (MDA-MB-231, 96 h), 0.00157 µM; in experiment [2] (setting [3]), 0.00163 µM.
Consider `Fc1cc2nc(CNc3nc(N4CC5CCC(C4)N5)nc4c(Br)cnn34)[nH]c2cc1Cl` [Example 348, 8-bromo-N-[(6-chloro-5-fluoro-1H-benzimidazol-2-yl)methyl]-2-(3,8-diazabicyclo[3.2.1]octan-3-yl)pyrazolo[1,5-a][1,3,5]triazin-4-amine], for which the IC50 stood at 2.89 µM on CDK12/CycK, 0.002 µM in experiment [1] (96 h) and 0.00197 µM in experiment [2] (Inhibition of BRCA1 mRNA expression in MDA-MB-231 cells).
As to `CN(CC(C)(C)O)c1nc(NCc2nc3cc(Cl)c(Cl)cc3[nH]2)n2ncc(Br)c2n1` [Example 331, 1-[(8-bromo-4-{[(5,6-dichloro-1H-benzimidazol-2-yl)methyl]amino}pyrazolo[1,5-a][1,3,5]triazin-2-yl)(methyl)amino]-2-methylpropan-2-ol], the IC50 was 0.35 µM at CDK12/CycK; 0.00375 µM in experiment [1] (MDA-MB-231, 96 h); 0.00256 µM in experiment [2] (setting [3]).
The corresponding values for `CN(CC(C)(C)O)c1nc(NCc2nc3cc(C(F)(F)F)ccc3[nH]2)n2ncc(C3CC3)c2n1` [Example 323, 1-{[8-cyclopropyl-4-({[5-(trifluoromethyl)-1H-benzimidazol-2-yl]methyl}amino)pyrazolo[1,5-a][1,3,5]triazin-2-yl](methyl)amino}-2-methylpropan-2-ol] are 2.85 µM, 0.00876 µM and 0.0169 µM.
The corresponding values for `Fc1cc(F)cc(-c2nnc(CNc3nc(N4CCOCC4)nc4c(C(F)(F)F)cnn34)[nH]2)c1` [Example 386, N-{[5-(3,5-difluorophenyl)-4H-1,2,4-triazol-3-yl]methyl}-2-(morpholin-4-yl)-8-(trifluoromethyl)pyrazolo[1,5-a][1,3,5]triazin-4-amine] are 0.115 µM, 0.0202 µM and 0.00916 µM.
As for `CN1CCN(c2nc(NCc3nc4cc(F)c(F)cc4[nH]3)n3ncc(Br)c3n2)CC1` [Example 346, 8-bromo-N-[(5,6-difluoro-1H-benzimidazol-2-yl)methyl]-2-(4-methylpiperazin-1-yl)pyrazolo[1,5-a][1,3,5]triazin-4-amine], the IC50 was determined as 12.2 µM at CDK12/CycK; 0.00467 µM in experiment [1] (MDA-MB-231, 96 h); 0.00302 µM in experiment [2] (setting [3]).
For `CN1CCN(c2nc(NCc3nc4c(F)c(F)ccc4[nH]3)n3ncc(Cl)c3n2)CC1` [Example 358, 8-chloro-N-[(4,5-difluoro-1H-benzimidazol-2-yl)methyl]-2-(4-methylpiperazin-1-yl)pyrazolo[1,5-a][1,3,5]triazin-4-amine], the IC50 on CDK12/CycK amounted to 11.6 µM; in experiment [1] (MDA-MB-231, 96 h), 0.0148 µM; in experiment [2] (setting [3]), 0.00387 µM.
